Measured values as given in ChEMBL document CHEMBL5584240, “Evaluation of potency and metabolic stability of diphyllin-derived Vacuolar-ATPase inhibitors” (Eur J Med Chem, 2024).
Active and inactive are the calls of the source. The rule behind the calls is not given here.

Experiments:
[1] = Oral bioavailability in ICR mouse at 75 mg/kg by LC-MS/MS analysis; type: ADME, organism-based; details: in vivo
Ebolavirus = test: Antiviral activity against recombinant Ebola virus Mayinga expressing GFP infected in human HeLa cells with ATP6V0a2 KO assessed as reduction in viral entry into cells pretreated for 1 hr followed by viral infection measured after 24 to 48 hrs by imaging analysis; type: functional, organism-based; details: Orthoebolavirus
HEK293 = test: Cytotoxicity against HEK293 cells incubated for 72 hrs by MTT assay; type: toxicity, cell-based; details: human, hek293, 72 h
A549 = test: Induction of phospholipidosis in NBD-PE-treated human A549 cells at 10 uM incubated for 24 hrs by imaging based analysis; type: functional, cell-based

| SMILES | bioavailability [1] | EC50 (Ebolavirus) | CC50 (HEK293) | Activity (A549) |
| --- | --- | --- | --- | --- |
| COc1cc2c(O[C@@H]3O[C@H](CO)[C@@H]4OC(C)(C)O[C@@H]4[C@H]3O)c3c(c(-c4ccc5c(c4)OCO5)c2cc1OC)C(=O)OC3 | 2.5% |  |  |  |
| COc1cc2c(O)c3c(c(-c4ccc5c(c4)OCO5)c2cc1OC)C(=O)OC3 [DIPHYLLIN] |  | 1.09 µM | > 80 µM | inactive |
